Laboratory results as given in patent US20080027079A1, “DIHYDROOROTATE DEHYDROGENASE INHIBITORS WITH SELECTIVE ANTI-MALARIAL ACTIVITY” (Board of Regents, University of Texas System, priority 2006, published 2008).
Where two headings read alike, the source gives them in different places.

Assays:
[1] = biological target: T1, P. falciparum dihydroorotate dehydrogenase (pfDHODH) (Plasmodium falciparum, UniProt Q08210); assay: biochemical
T1 sequence (Q08210 24-569): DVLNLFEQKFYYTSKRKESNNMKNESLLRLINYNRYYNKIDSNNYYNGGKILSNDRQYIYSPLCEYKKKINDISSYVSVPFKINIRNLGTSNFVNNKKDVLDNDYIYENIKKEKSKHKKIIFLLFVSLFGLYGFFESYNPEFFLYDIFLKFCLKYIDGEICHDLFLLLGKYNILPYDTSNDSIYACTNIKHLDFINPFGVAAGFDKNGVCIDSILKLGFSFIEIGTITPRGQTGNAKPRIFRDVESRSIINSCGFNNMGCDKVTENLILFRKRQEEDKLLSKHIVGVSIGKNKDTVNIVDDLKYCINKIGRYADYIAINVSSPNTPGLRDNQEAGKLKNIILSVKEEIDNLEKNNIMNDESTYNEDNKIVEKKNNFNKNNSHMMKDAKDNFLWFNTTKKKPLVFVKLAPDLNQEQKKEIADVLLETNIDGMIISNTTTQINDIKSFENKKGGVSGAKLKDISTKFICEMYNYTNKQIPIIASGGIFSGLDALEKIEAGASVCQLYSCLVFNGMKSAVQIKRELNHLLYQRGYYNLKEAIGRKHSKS
Method: (§1) Measurement of enzyme inhibition. For studying inhibition of Plasmodium or human DHODH enzyme, two assays that are in routine use are described, for example, in Baldwin, et al. (2002) J Biol Chem., 277, 41827-41834, and Baldwin, et al. (2005) J. Biol. Chem., 280. 21847-21853. Briefly, these assays are as follows: 1) A […] assay thay that monitors 2,6-dichloroindophenol (DCIP) reduction at 600 nm (e=18.8 mM^−1 cm^−1) is performed as either a continuous assay where absorbance is recorded over time. The assay solution containing 100 mM HEPES, pH 8.0, 150 mM NaCl, 10% glycerol, 0.05% Triton X-[…] CoQ0 (coenzyme QD), […] L-dihydroorotate, and […] DCIP. Reactions are initiated by addition of enzyme to a final concentration of 5-50 nM and the temperature is maintained at 25° C with a circulating water bath. 2) A direct assay that follows the production of orotic acid by measuring the absorbance change at 287 nm (ε=4.3 mM^−1 cm^−1); DCIP is not included, but all other components of the assay are as described in method one. Inhibitor stocks are prepared in DMSO, and the inhibitors, such as GR-34, are added to these assays over a concentration range that encompasses their IC50 value and, the IC50's are determined from a plot of reaction rate in the presence of inhibitor/reaction rate in the absence of inhibitor (vi/vo) versus inhibitor concentration (Eq. 1). [formula]

[2] = tested on: P. falciparum 3D7; assay: 3H-hypoxanthine uptake in P. falciparum-infected erythrocytes in culture (whole cell assay); type: cell-based; details: Plasmodium falciparum, Erythrocyte; 3D7 strain, in vitro
Method: In vitro evaluation of compound efficacy on the human malaria parasite, P. falciparum. To study inhibition of cell proliferation, ^3H-hypoxanthine uptake is measured in drug-treated, P. falciparum-infected erythrocytes grown in culture, pursuant to the methodology of Desjardins, et al. (1979) Antimicrobial Agents and Chemotherapy 16, 710-718, and Zhang and Rathod (2002) Science 296, 545-547.

[3] = biological target: human dihydroorotate dehydrogenase (hDHODH) (Homo sapiens, UniProt Q02127); assay: hDHODH enzyme inhibition (DCIP colorimetric or direct orotate assay); type: biochemical
human dihydroorotate dehydrogenase (hDHODH), sequence (Q02127 whole entry): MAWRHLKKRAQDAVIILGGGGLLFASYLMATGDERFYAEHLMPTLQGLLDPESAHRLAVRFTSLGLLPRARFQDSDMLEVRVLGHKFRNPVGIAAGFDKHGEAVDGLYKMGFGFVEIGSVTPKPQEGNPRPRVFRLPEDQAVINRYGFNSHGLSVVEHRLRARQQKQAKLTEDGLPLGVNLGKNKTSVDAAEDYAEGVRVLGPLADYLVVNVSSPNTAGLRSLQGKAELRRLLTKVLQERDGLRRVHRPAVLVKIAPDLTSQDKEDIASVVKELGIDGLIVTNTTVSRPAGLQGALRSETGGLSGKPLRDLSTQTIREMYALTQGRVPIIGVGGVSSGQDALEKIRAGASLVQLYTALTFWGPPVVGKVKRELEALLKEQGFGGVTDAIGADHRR
Method: as §1

Row | Structure (SMILES) | IC50 ([1]; read-out: IC50 pf DHODH) [nM] | EC50 [2] [nM] | IC50 [3] [µM] | IC50 [1] [nM]
1 | Cc1cc(Nc2cc3ccccc3cc2O)n2ncnc2n1 [5-methyl-N-(3-hydroxynaphthalen-2-yl)-[1,2,4]triazolo[1,5-a]pyrimidin-7-amine] | 2400 | 600 | – | –
2 | Cc1cc(Nc2ccc3c(=O)ccoc3c2)n2ncnc2n1 [5-methyl-N-(4H-chromen-4-on-7-yl)-[1,2,4]triazolo[1,5-a]pyrimidin-7-amine] | 1900 | – | > 200 | –
3 | Cc1cc(Nc2cnc3ccccc3c2)n2ncnc2n1 [5-methyl-N-(quinolin-3-yl)-[1,2,4]triazolo[1,5-a]pyrimidin-7-amine] | 2000 | – | > 200 | –
4 | Cc1cc(Nc2ccc3ncccc3c2)n2ncnc2n1 [5-methyl-N-(quinolin-6-yl)-[1,2,4]triazolo[1,5-a]pyrimidin-7-amine] | – | – | > 200 | 1300
5 | FC(F)(F)c1cc(Nc2ccc3ccccc3c2)n2ncnc2n1 [5-trifluoromethyl-N-(naphthalen-2-yl)-[1,2,4]triazolo[1,5-a]pyrimidin-7-amine] | 126 | – | > 200 | –

Continued, in another order:

Row | IC50 ([1]; read-out: IC50 pf DHODH) [nM] | EC50 [2] [nM] | IC50 [3] [µM] | Structure (SMILES) | IC50 [1] [nM]
6 | 130 | – | – | Cc1nc2ncnn2c(Nc2ccc3ccccc3c2)c1C [5,6-dimethyl-N-(naphthalen-2-yl)-[1,2,4]triazolo[1,5-a]pyrimidin-7-amine] | –
7 | 280 | – | – | CCc1cc(Nc2ccc3ccccc3c2)n2ncnc2n1 [5-ethyl-N-(naphthalen-2-yl)-[1,2,4]triazolo[1,5-a]pyrimidin-7-amine] | –
8 | 23 | 120 | > 200 | Cc1cc(Nc2ccc3cc4ccccc4cc3c2)n2ncnc2n1 [5-methyl-N-(anthracen-2-yl)-[1,2,4]triazolo[1,5-a]pyrimidin-7-amine] | –
9 | – | 50 | > 600 | Cc1cc(Nc2ccc3ccccc3c2)n2ncnc2n1 [5-methyl-N-(naphthalen-2-yl)-[1,2,4]triazolo[1,5-a]pyrimidin-7-amine] | –
10 | 250 | – | – | Cc1nc2ncnn2c(Nc2ccc3cc4ccccc4cc3c2)c1C [N-(anthracen-2-yl)-5,6-dimethyl-[1,2,4]triazolo[1,5-a]pyrimidin-7-amine] | –
11 | 240 | – | – | CCc1cc(Nc2ccc3cc4ccccc4cc3c2)n2ncnc2n1 [N-(anthracen-2-yl)-5-ethyl-[1,2,4]triazolo[1,5-a]pyrimidin-7-amine] | –
